± gives the expanded uncertainty stated by the source.
Experiment: osmotic coefficient (dimensionless); mn = molality of the nth substance listed, in mol/kg
Settings: 101 kPa, Liquid, Knauer vapor pressure osmometer

Cc1ccc(S(=O)(=O)[O-])cc1.[Na+] [sodium p-toluenesulfonate] + O
osmotic coefficient
Settings	313.15 K	318.15 K	323.15 K
m1 = 0.02	0.985 ± 0.078	0.98 ± 0.074	0.968 ± 0.07
m1 = 0.04	0.964 ± 0.029	0.96 ± 0.036	0.956 ± 0.029
m1 = 0.06	0.944 ± 0.028	0.941 ± 0.028	0.939 ± 0.028
m1 = 0.08	0.933 ± 0.028	0.931 ± 0.028	0.928 ± 0.028
m1 = 0.1	0.921 ± 0.028	0.92 ± 0.028	0.916 ± 0.028
m1 = 0.12	0.911 ± 0.028	0.908 ± 0.027	0.904 ± 0.027
m1 = 0.14	0.902 ± 0.027	0.898 ± 0.027	0.894 ± 0.027
m1 = 0.15	0.897 ± 0.027	0.895 ± 0.027	0.892 ± 0.027
m1 = 0.16	0.891 ± 0.027	0.888 ± 0.027	0.885 ± 0.027
m1 = 0.17	0.888 ± 0.027	0.887 ± 0.027	0.882 ± 0.027
m1 = 0.2	0.867 ± 0.026	0.864 ± 0.026	0.86 ± 0.026
m1 = 0.22	0.876 ± 0.027	0.873 ± 0.027	0.869 ± 0.026
m1 = 0.3	0.839 ± 0.026	0.836 ± 0.026	0.831 ± 0.026
m1 = 0.35	0.806 ± 0.025	0.803 ± 0.025	0.8 ± 0.025
m1 = 0.4	0.771 ± 0.025	0.76 ± 0.024	0.755 ± 0.024
m1 = 0.45	0.76 ± 0.024	0.756 ± 0.024	0.75 ± 0.024
m1 = 0.5	0.75 ± 0.024	0.743 ± 0.024	0.739 ± 0.024
m1 = 0.6	0.72 ± 0.024	0.711 ± 0.024	0.696 ± 0.023
m1 = 0.7	0.71 ± 0.024	0.685 ± 0.023	0.676 ± 0.023
m1 = 0.8	0.701 ± 0.024	0.683 ± 0.023	0.674 ± 0.023

Source: the NIST ThermoML archive (doi:10.1021/je050348f)
